Test system: adipose cells of rats
Experiment: Evaluation of the sugar transporting capacity (2-[14C(U)]-deoxy-D-glucose incorporation)
Assay type: cell-based
Details: insulin 100 nM; rat adipose cells; 2-deoxy-D-glucose incorporation
Method: Preparation of Adipose Cells of Rats:
After the decapitation and venesection of 6 male Wistar rats (body weight: 150 to 200 g), an incision was made in the abdomen of each rat to extract 6 g in total of epididymal adipose tissues. The tissues were finely cut into 2 mm×2 mm pieces in 6 ml of KRH (Krebs-Ringer Hepes, composition: 130 mM of sodium chloride, 4.7 mM of potassium chloride, 1.2 mM of potassium dihydrogenphosphate, 1.2 mM of magnesium sulfate, 1 mM of calcium chloride and 25 mM of Hepes, pH=7.6) containing 5% of BSA (bovine serum albumin). 24 mg of collagenase (type I) was added thereto and the digestion treatment was conducted for about 40 minutes to obtain about 6 ml of isolated adipose cells. The collagenase was removed by the buffer exchange. 2% BSA/KRH solution was added to the residue for the re-suspension to obtain 45 ml of an adipose cell suspension.
Evaluation of the Sugar Transporting Capacity: […]
The sugar transporting capacity was evaluated by measuring the quantity of 2-[^14C(U)]-deoxy-D-glucose incorporated per a unit time. […] The quantity of 2-[^14C(U)]-deoxy-D-glucose contained in the adipose cell layer was determined with a liquid scintillation counter to determine the quantity of the incorporated sugar.

insulin
effect of increasing the sugar-transporting capacity versus insulin-free control group: about 7 times

Reference: patent US7834006B2, “Fused polycyclic compounds” (Ajinomoto Co., Inc., priority 2004, dated 2010)
